One data set relates to HCT116 cells. The data set is described as follows: MTT cytotoxicity assay, HCT116. In kind it is cell-based, human. The conditions noted are these: for cytotoxicity in HCT116 relative to inhibitory concentration in normal (Vero) cell line: HCT116 vs Vero; for IC50: Homo sapiens, HCT-116, 48 h, mean ± SEM of three experiments. The protocol:
Human colorectal carcinoma cell line (HCT116) and African green monkey kidney epithelial cells (VERO) were obtained from National Centre for Cell Science, Pune, MH, India. For their maintenance, the cells were grown in Dulbecco's Modified Eagle's Medium (DMEM) which was supplemented with 10% fetal bovine serum (FBS) and 1 × penicillin/streptomycin at 37°C in CO2 incubator (NU-5501E/G, NuAire Inc., Plymouth, MN, USA) in a humidified atmosphere of 5% CO2 and 95% air.
Cytotoxicity for the synthesized analogues was determined using MTT assay. In brief, HCT116 and VERO cells were harvested from the tissue culture flask and seeded in sterile 96 well plates at a density of 5000 cells per well. After overnight adherence, different concentrations of test compounds were added and incubated for 48 h. Next, 50 µl of the MTT reagent (HiMedia Laboratories, Mumbai, India) (2 mg/ml in the sterile phosphate buffer saline (PBS)) was added into each well and incubated for 3 h. The formazan crystals formed were solubilized using 100% dimethyl sulfoxide (DMSO), and the optical density was measured at 540 nm using the microplate reader (ELx800, BioTek Instruments Inc., Winooski, VT, USA).

Data set [1] concerns HDAC enzyme in HCT116 cells. The data set is described as follows: Whole cell HDAC inhibition assay. Format: cell-based. The settings on record: Homo sapiens, HCT-116, HCT116, 18 h treatment, mean ± SEM of three experiments. The protocol: Confluent HCT116 cells were harvested and seeded in 96 well sterile black well plates at a density of 2000 cells per well and incubated overnight. Furthermore, the cells were treated with different concentrations of test compounds for a period of 18 h followed by the addition of […] BOC-Ac-Lys-AMC substrate and incubated for 1 h. […] The reaction was then allowed to proceed for 15 min at 37°C. Finally, the fluorescence intensity was measured at 360 nm excitation and 460 nm emission using a fluorescence microplate reader (FLx800, BioTek Instruments Inc., Winooski, VT, USA).

For data set [2], the target named is T1, recombinant human HDAC8 enzyme (Homo sapiens, UniProt Q9BY41).
T1 construct: purchased Enzo Life Science, NY, USA BML-AK518
T1 sequence (Q9BY41 1-377): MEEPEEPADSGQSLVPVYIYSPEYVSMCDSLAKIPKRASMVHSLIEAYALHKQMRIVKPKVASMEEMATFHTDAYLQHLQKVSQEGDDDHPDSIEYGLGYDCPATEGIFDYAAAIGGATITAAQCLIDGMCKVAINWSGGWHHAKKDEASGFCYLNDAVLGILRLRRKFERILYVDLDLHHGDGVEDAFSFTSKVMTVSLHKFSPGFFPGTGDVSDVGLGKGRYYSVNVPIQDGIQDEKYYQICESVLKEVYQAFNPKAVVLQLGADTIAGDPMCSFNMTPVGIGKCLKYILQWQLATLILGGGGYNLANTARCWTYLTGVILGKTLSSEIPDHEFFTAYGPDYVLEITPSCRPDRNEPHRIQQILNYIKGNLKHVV
The data set is described as follows: HDAC8 enzyme inhibition assay. The settings on record: mean ± SEM of three experiments. Format: biochemical. The protocol:
The enzymatic reaction was conducted as per Enzo Life Science, NY, USA (BML-AK518) kit protocol. In brief, 10 µl of different concentration of test compounds were added to a 40 µl reaction mixture containing the HDAC assay buffer, HDAC8 substrate, and recombinant human HDAC8 enzyme. The reactions were incubated for 20 min at 30°C. Then, 50 µl of the HDAC developer was added in each well, and the plate was incubated at room temperature for an additional 45 min. Fluorescence intensity was measured at an excitation of 360 nm and an emission of 460 nm using a fluorescence microplate reader (FLx800, BioTek Instruments Inc., Winooski, VT, USA).

The subject of data set [3] is caspase 3/7 in HCT116 cells. The data set is described as follows: Caspase 3/7 activation assay. In kind it is cell-based, human. The conditions noted are these: SAHA 5 µM, quercetin 100 µM, QMJ-2 100 µM, QMJ-5 50 µM; for percentage of apoptotic cells (Apoptotic/Dead, caspase 3/7): normal control 24.60%; for percentage of live cells (caspase 3/7): normal control 69.40%. How it is done:
The downstream signaling pathway of apoptosis was determined using the caspase 3/7 activation assay. In brief, as per the caspase 3/7 activation kit protocol (#MCH100108), 1 × 10^6 cells were seeded in the cell culture dish and after overnight adherence, were incubated with the test compounds. The cells were detached by trypsinization, centrifuged, and washed with PBS. Cell suspension (50 µl) was mixed with the caspase 3/7 antibody reagent (5 µl) and incubated at 37°C temperature for 30 min. 7-AAD (7-amino-actinomycin D) working solution (150 µl) was added, and stained cells were then analyzed in Muse Cell Analyzer (#0500-3115 Merck Millipore).

The next data set deals with DMH-induced colon cancer. In kind it is in vivo, Wistar rats. The conditions noted are these: for ACF/5 cm^2 / Adenocarcinoma: 21 days treatment, quercetin, QMJ-2, QMJ-5 100 mg/kg p.o., mean ± SEM of six animals; for ACF/5 cm^2: DMH control 25 ± 2.1; for Adenocarcinoma: count in colon, DMH control 17 ± 1.7; for kidney index / liver index / spleen index: rat, in vivo, po, 100 mg/kg. The protocol:
The two test compounds (QMJ-2 and QMJ-5) and quercetin were suspended in 0.25% w/v sodium carboxymethyl cellulose (CMC) and were administered orally (p.o.). 5-Fluorouracil (5-FU) which was used as a standard was procured in the form of injection and was administered intraperitonially (i.p.).
Colon cancer in experimental animals was induced using the highly specific carcinogen DMH, with few modifications from the previously described procedure. DMH was administered at a dose of 30 mg/kg i.p. once a week for 20 weeks. The incidence of aberrant crypt foci (ACF) and adenocarcinoma were confirmed by sacrificing few animals after 20 weeks of induction with DMH. Furthermore, the animals were randomized into five experimental groups, and various treatments were administered for a period of 21 days followed by the assessment of different parameters in the experimental animals.
(1) Experimental Groups • Group 1: animals received 0.25% CMC in water p.o. • Group 2: animals received 0.25% CMC in water p.o. (DMH control) • Group 3: animals received 5-FU at 10 mg/kg i.p. • Group 4: animals received quercetin at 100 mg/kg p.o. • Group 5: animals received QMJ-2 at 100 mg/kg p.o. • Group 6: animals received QMJ-5 at 100 mg/kg p.o.
(2) ACF Formation and Adenocarcinoma Incidence. The entire colon was excised from the experimental animals and was used to study the incidence of adenocarcinoma. The count and size were noted from each animal. For ACF formation, the distal part of the colon was excised, and the tissue was then cut open and fixed with 10% buffered formalin for 12 h. Following this, the tissue was stained with 0.1% methylene blue in PBS for 5 min. The tissues were then observed under microscope for ACF formation and were calculated as the number of counts/5 cm^2 in colon tissue.
(3) Colon Weight/Length Ratio and Organ Index. Length of the excised colon was measured in centimeters, and weight was measured in g. Colon weight/length ratio was then calculated. For the determination of organ index, major organs including spleen, liver, and kidney of the experimental animals were weighed in g and the respective index was calculated. […]

“And” between values parts separate entries of the source, which are not always exact repeats. Identical values can stand only once. Marks after values point to notes of the source that are not given here.

In general, IC50 refers to the midpoint of a concentration-inhibition curve. Take `Cc1ccc(-c2oc3ccccc3c(=O)c2O)cc1` [QMJ-2, 3-Hydroxy-2-(4-methylphenyl)-4H-1-benzopyran-4-one]: in the data set on HCT116 cells, the “cytotoxicity in HCT116 relative to inhibitory concentration in normal (Vero) cell line” value is “two-fold lower concentration” and the IC50 was 68 ± 2.3 µM. In data set [1], this compound returned an IC50 of 182 ± 22 µM. In data set [2], the IC50 came to 36 ± 4.17 µM. For the same compound, in data set [3], the “percentage of apoptotic cells (Apoptotic/Dead, caspase 3/7)” value is given as 55.70% and the “percentage of live cells (caspase 3/7)” value is reported as 37.40%. Also, in the data set with DMH-induced colon cancer (5-FU 10 mg/kg i.p.), the “ACF/5 cm^2” value is 16 ± 2.1 /5 cm^2 and 16 ± 2.1^a /5 cm^2; the Adenocarcinoma is listed as 14 ± 1.3. Further, in the data set with DMH-induced colon cancer (compared with DMH control, 5-FU 10 mg/kg i.p., others 100 mg/kg p.o., 21 days), the colon weight/length ratio entry is given as “significant decrease”. Besides, in the data set on DMH-induced colon cancer, the kidney index entry is given as “no significant change”, the liver index entry was “Significant reduction” and the spleen index entry is “significant decrease”.

Consider `Cc1ccc(-c2oc3cc(C)ccc3c(=O)c2O)cc1` [QMJ-5, 3-Hydroxy-7-methyl-2-(4-methylphenyl)-4H-1-benzopyran-4-one], for which, in the data set with HCT116 cells, the “cytotoxicity in HCT116 relative to inhibitory concentration in normal (Vero) cell line” value is “two-fold lower concentration” and the IC50 came to 27.4 ± 1.8 µM. For the same compound, the IC50 in data set [1] was found to be 70.2 ± 4.3 µM. Besides, in data set [2], the IC50 turned out to be 24 ± 2.8 µM. In addition, in data set [3], the “percentage of apoptotic cells (Apoptotic/Dead, caspase 3/7)” value is 83.55% and the “percentage of live cells (caspase 3/7)” value came out at 8.05%. In the data set with DMH-induced colon cancer (5-FU 10 mg/kg i.p.), the “ACF/5 cm^2” value is 15 ± 2.6 /5 cm^2 and 15 ± 2.6^a /5 cm^2; the Adenocarcinoma was 11 ± 0.8^a. For the same compound, in the data set with DMH-induced colon cancer, the kidney index entry is recorded as “no significant change” and the liver index result is given as “Significant reduction”.

`O=c1c(O)c(-c2ccc(O)c(O)c2)oc2cc(O)cc(O)c12` [Quercetin, quercetin, reference compound]: the values for the IC50 (in the data set with HCT116 cells; in data set [1]; in data set [2]) were 108 ± 1.2 µM, 168 ± 6.9 µM and 15.4 ± 1.53 µM, respectively. For the same compound, the “percentage of apoptotic cells (Apoptotic/Dead, caspase 3/7)” value in data set [3] is recorded as 59.65%. Further, in the data set on DMH-induced colon cancer (5-FU 10 mg/kg i.p.), the “ACF/5 cm^2” value was 19 ± 2.6 /5 cm^2. For the same compound, the Adenocarcinoma with DMH-induced colon cancer (5-FU 10 mg/kg i.p.) amounted to 15 ± 1.1. Moreover, in the data set on DMH-induced colon cancer, the spleen index result is recorded as “significant decrease”.

Source of the values: PMC6327263, “Evaluation of Novel 3-Hydroxyflavone Analogues as HDAC Inhibitors against Colorectal Cancer” (Advances in Pharmacological Sciences, 2018).
